Laboratory results from patent US20190328857A1, “CALR AND JAK2 VACCINE COMPOSITIONS” (IO Biotech ApS, priority 2016, published 2019).

Experiments:
Type in all cases: cell-based, human
[1] = system: autologous CALRmut cells; assay: Intracellular cytokine staining of CALRLong1-specific T cells stimulated with autologous target cells; settings: IFN-γ 300 U/ml for 24 h
Procedure: As target cells, we used autologous CD14^+ monocytes and B-cells (BCL). As described above, CD14^+ monocytes were isolated using the MACS CD14 MicroBead kit. An autologous B-cell line was generated using EBV transfection of donor BCL at the Health Protection Agency Culture Collections, Salisbury, UK.
Frozen T-cells were thawed one day prior to assaying, and in experiments examining CD107a expression, a CD107a-PE antibody was added to cells directly after addition of peptide or target cells. After one hour of stimulation, protein-transport inhibitor Brefeldin A (BD Biosciences, San Jose, Calif., USA) was added to the cells which were then stimulated for four h. Cells were stained with CD3-APC-H7, CD4-FITC, CD8-PerCP, IFN-γ-APC, TNF-α-BV421 and Fixable Viability Stain 510 (BD Biosciences, San Jose, Calif., USA), permeabilized and washed with Permeabilization Reagent/Diluent and fixation-permeabilization buffer (AH Diagnostics, Aarhus, Denmark). Cells were acquired with a FACS Canto II (BD Biosciences) and analyzed using FACSDiva software. All effector cell stimulations were run in triplicate wells if not otherwise specified.
Autologous CD14^+ monocytes were cultured with CellGro, GM-CSF (1000 U/ml) and IL-4 (250 U/mL) and transfected with either CALR siRNA or negative-control siRNA (Invitrogen) the next day, using electroporation parameters as described previously (Met et al., 2011). In brief, monocytes were washed twice, suspended in Opti-MEM medium (Invitrogen) and adjusted to a final cell density of 10^7 cells/ml. The cell suspension (200 μl) was preincubated for 5 min on ice and subsequently, together with 5 μl of CALR siRNA or 10 μl of negative control siRNA transferred to a 2-mm gap electroporation and pulsed using a BTX 830 square-wave electroporator (Harvard Apparatus, Holliston Mass., USA). Electroporation settings were adjusted to a single pulse, 250 V, 2 ms. […]
As target cells, we used CD14^+ monocytes with CALRmut allelic burden of 71% and autologous EBV-transformed immortalized B-cells with a CALRmut allelic burden of 0% determined by PCR analysis. […]

[2] = system: UKE-1 and THP-1 cells; assay: ELISPOT of JAK201-specific T cells stimulated with cancer cell lines; settings: 100 U/ml IFN-γ 2 days before assaying
Source text: (§1) Next, we examined the capacity of JAK201-specific T cells to recognize and kill cancer cells harboring the JAK2V617F mutation. UKE-1, SET-2 and THP-1 are acute myeloid leukemia cancer cell lines that are HLA-A2-positive. THP-1 cells are JAK2 wt, whereas UKE-1 cells are homozygous and SET-2 are heterozygous for the JAK2V617F mutation. We first examined JAK201-specific T-cells reaction towards the UKE-1 cancer cell line. […] IFN-γ is known to induce the immunoproteasome and to upregulate HLA class I on the cell surface overall enhancing the antigen presentation by the target cell.
Finally to confirm the recognition of cells expressing the JAK2V617F mutation, we transfected JAK2 wt THP-1 cells with mRNA encoding the JAK2V617F mutation using neural growth factor receptor (NGFR) encoding mRNA as control and used these cells as target cells in cytokine release and Granzyme B assays. […] More than 50% of patients with Philadelphia chromosomenegative chronic MPN harbor the JAK2V617F mutation. This acquired somatic mutation is found exclusively in myeloid malignancies, rendering it a cancer-specific antigen. JAK2V617F is consequently an attractive target for cancer immune therapy.

[3] = system: UKE-1, SET-2 and THP-1 cells; assay: Standard Cr^51 cytotoxicity assay with JAK201-specific T cells and cancer cell lines
Source text: as §1
Then we examined the importance of the intracellular expression of the JAK2V617F mutation for the recognition of target cells by JAK201-specific T cells. Thus to silence the JAK2V617F mutation, we transfected UKE-1 cells with JAK2V617F siRNA and used the transfected cells as target cells, and compared the recognition with mock transfected UKE-1 cells as previously described. Silencer siRNA duplex for targeted silencing of JAK2V617F with 3′-end overhang dT bases in the antisense strand (sense sequence 5′-[…]-3′ (SEQ ID NO: 21), antisense sequence 5′-[…]-3′ (SEQ ID NO: 22) for duplex 1; and sense sequence 5′-[…]-3′ (SEQ ID NO: 23), antisense sequence 5′-[…]-3′ (SEQ ID NO: 24) for duplex 2) were obtained from Invitrogen (Invitrogen, Paisley, UK). […]

## IFN-γ: cytokine used to pretreat target cells to enhance antigen presentation
[1]
  effect of target cell stimulation on T-cell activation, B-cells: no change in activation
  effect of target cell stimulation on T-cell activation, CALRmut monocytes: significantly enhanced
[2]
  effect of pretreatment of UKE-1 cells on IFN-γ release from the T cells: even greater release
[3]; IFN-γ stimulation
  lysis of SET-2 cells after stimulation: likewise lysed
[3]; IFN-γ treatment
  effect of treatment of UKE-1 cells on lysis: augmented
